Assay results from ChEMBL document CHEMBL1127465, “Rational design, synthesis, and crystallographic analysis of a hydroxyethylene-based HIV-1 protease inhibitor containing a heterocyclic P1'--P2' amide bond isostere” (J Med Chem, 1994).

Biological target: Human immunodeficiency virus type 1 protease (Human immunodeficiency virus 1, UniProt Q72874)
Assay: Apparent inhibition constant against recombinant HIV-1 protease

Compound	Ki [nM]
CC(=O)c1c[nH]c([C@H](Cc2ccccc2)C[C@H](O)[C@H](Cc2ccccc2)NC(=O)OC(C)(C)C)n1	370
CC(C)C(O)c1cnc([C@H](Cc2ccccc2)C[C@H](O)[C@H](Cc2ccccc2)NC(=O)OC(C)(C)C)[nH]1 (stereo not given in full)	2700
CC(C)(C)OC(=O)N[C@@H](Cc1ccccc1)[C@@H](O)C[C@@H](Cc1ccccc1)c1nc(C=O)c[nH]1	3500
CC(C)(C)OC(=O)N[C@@H](Cc1ccccc1)C(=O)C(O)CN[C@@H](Cc1ccccc1)C(=O)NCC(N)=O (stereo not given in full)	120
CC(C)C(=O)c1cnc([C@H](Cc2ccccc2)C[C@H](O)[C@H](Cc2ccccc2)NC(=O)OC(C)(C)C)[nH]1	83
C=CC(C)(C)C(=O)c1cnc([C@H](Cc2ccccc2)C[C@H](O)[C@H](Cc2ccccc2)NC(=O)OC(C)(C)C)[nH]1	270
CC(C)[C@@H](NC(=O)[C@@H](Cc1ccccc1)NCC(O)C(=O)[C@H](Cc1ccccc1)NC(=O)[C@H](C)NC(=O)OCc1ccccc1)C(=O)O (stereo not given in full)	0.7
CCCC(=O)c1c[nH]c([C@H](Cc2ccccc2)C[C@H](O)[C@H](Cc2ccccc2)NC(=O)OC(C)(C)C)n1	150
CC(O)c1cnc([C@H](Cc2ccccc2)C[C@H](O)[C@H](Cc2ccccc2)NC(=O)OC(C)(C)C)[nH]1 (stereo not given in full)	13300
CCC(=O)c1cnc([C@H](Cc2ccccc2)C[C@H](O)[C@H](Cc2ccccc2)NC(=O)OC(C)(C)C)[nH]1	92
